From article PMC10364317, “Regulation of indole‐3‐acetic acid biosynthesis and consequences of auxin production deficiency in Serratia plymuthica” (Microbial Biotechnology, 2023)
Entries after “also recorded” stand apart in the source; their conditions may differ. Read-outs that look alike come from different tables or passages of the source.

Key:
HpaAA153 = HpaAA153 (Serratia plymuthica, UniProt A0A7T2WCJ6); assay: Isothermal titration calorimetry of HpaAA153 with ligands; type: binding, Serratia plymuthica A153
Sequence of HpaAA153 (A0A7T2WCJ6 entry or part of it): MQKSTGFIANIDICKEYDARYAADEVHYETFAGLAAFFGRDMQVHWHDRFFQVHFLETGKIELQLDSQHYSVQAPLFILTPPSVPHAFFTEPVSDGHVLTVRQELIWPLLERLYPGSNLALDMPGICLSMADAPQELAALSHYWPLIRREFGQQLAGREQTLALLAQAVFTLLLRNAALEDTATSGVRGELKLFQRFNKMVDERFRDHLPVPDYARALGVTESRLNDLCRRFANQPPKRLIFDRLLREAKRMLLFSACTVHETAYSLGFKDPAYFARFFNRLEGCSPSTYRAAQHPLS
Procedure: (§1) Measurements were made using a VP‐ITC microcalorimeter (MicroCal, Inc., Northampton, MA) at 10–25°C. HpaAA153 and HpaRA153 were dialyzed into 50 mM Tris, 300 mM NaCl, 10% (v/v) glycerol, 2 mM β‐mercaptoethanol, pH 8.0. Alternatively, TyrRA153 was dialyzed into 5 mM Tris, 5 mM PIPES, 5 mM MES, 150 mM NaCl, 10 mM MgCl2, 10 mM β‐mercaptoethanol, 10% (v/v) glycerol, pH 7.5. Proteins at 5–50 μM were placed into the sample cell and titrated with 3.2–12.8 μL aliquots of 0.5–10 mM ligand solutions made up in the corresponding dialysis buffers. For DNA binding studies, wild‐type and mutant oligonucleotides corresponding to the TyrR box were synthesized and annealed. Briefly, an equimolar mixture of 200 μM of each complementary oligonucleotide was prepared in 10 mM Tris, 50 mM NaCl, 1 mM EDTA, pH 7.5. This mixture was subsequently incubated at 95°C for 5 min, chilled on ice and dialyzed in the same buffer used for TyrRA153 ITC studies. A typical experiment consisted in an injection of 3.2–12.8 μL aliquots of 100 μM DNA into a 5–20 μM protein solution in the absence and presence of TyrR ligands (e.g. 1 mM L‐Trp; 1 mM L‐Phe; 0.1 mM L‐Tyr; 0.5 mM ATP). Protein‐DNA interaction studies were done at 10°C. In all cases, the mean enthalpies measured from the injection of the ligand in the buffer were subtracted from raw titration data before data analysis with the ORIGIN software (MicroCal).

HpaRA153 = assay: Isothermal titration calorimetry of HpaRA153 with ligands; type: binding, Serratia plymuthica A153
Procedure: as §1

TyrRA153 [1] = target: T1, TyrRA153 (Serratia plymuthica, UniProt A0A318P557); assay: Microcalorimetric titrations of TyrRA153 with 26-bp DNA oligomers of the ipdc promoter (TyrR box); type: binding, Serratia plymuthica A153; settings: wild-type ipdc promoter oligomer; for increase of TyrRA153 DNA binding affinity: saturating ligand concentration
Procedure: as §1

TyrRA153 [2] = target: T1, TyrRA153; assay: Isothermal titration calorimetry of TyrRA153 with ligands; type: binding, Serratia plymuthica A153; settings: for competition with L-Tyr for binding at the ATP-dependent site of TyrRA153: 10 mM competitor, 1 mM ATP, titration with 1 mM L-Tyr
Procedure: as §1

ipdc promoter = assay: β-Galactosidase assay of the ipdc promoter fusion (P ipdc::lacZ; pMAMV302); type: cell-based, Serratia plymuthica A153; settings: for induction of ipdc gene expression compared to the same medium lacking the ligand: minimal medium with 15 mM glucose, 1 mM ligand, 24 h
Procedure: Expression of the lacZ reporter gene was monitored during growth using 2‐nitrophenyl β‐D‐galactopyranoside (ONPG; Merck) as a substrate, as described previously (Miller, [1972]). The transcriptional fusion assays were carried out using S. plymuthica A153 LacZ (control) or derived mutants.

[3] = design: method as in Patten et al., [2013]; settings: ref Patten et al., [2013]; cited from earlier work
TyrR (TyrRA153) [4] = target: T2, TyrR (TyrRA153) (Serratia plymuthica A153, UniProt A0A318P557 1-523); assay: ITC; L-Phe (saturating; e.g. 1 mM); 10 mM MgCl2; ITC: 5 mM Tris, 5 mM PIPES, 5 mM MES, 150 mM NaCl, 10 mM MgCl2, 10 mM beta-mercaptoethanol, 10% glycerol, pH 7.5, 10 C; 100 uM DNA injected into 5-20 uM TyrR; settings: protein: recombinant; tags: N-terminal His6; chain copies: 2; blunt
T2 sequence: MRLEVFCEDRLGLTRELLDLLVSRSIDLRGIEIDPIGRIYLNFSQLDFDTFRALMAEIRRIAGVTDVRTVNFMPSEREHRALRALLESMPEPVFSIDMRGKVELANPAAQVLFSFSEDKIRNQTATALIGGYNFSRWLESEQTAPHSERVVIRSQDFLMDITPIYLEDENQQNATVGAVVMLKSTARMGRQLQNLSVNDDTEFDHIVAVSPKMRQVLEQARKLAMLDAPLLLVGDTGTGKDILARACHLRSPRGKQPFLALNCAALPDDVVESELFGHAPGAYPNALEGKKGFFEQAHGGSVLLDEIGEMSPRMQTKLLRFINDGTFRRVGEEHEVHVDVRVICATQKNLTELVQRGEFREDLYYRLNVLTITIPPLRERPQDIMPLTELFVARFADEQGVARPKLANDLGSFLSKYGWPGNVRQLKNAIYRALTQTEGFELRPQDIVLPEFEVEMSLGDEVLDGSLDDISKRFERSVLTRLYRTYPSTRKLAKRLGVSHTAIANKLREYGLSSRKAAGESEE

TyrR (TyrRA153) [5] = target: T2, TyrR (TyrRA153); assay: ITC; no amino acid or ATP; 10 mM MgCl2; ITC: 5 mM Tris, 5 mM PIPES, 5 mM MES, 150 mM NaCl, 10 mM MgCl2, 10 mM beta-mercaptoethanol, 10% glycerol, pH 7.5, 10 C; 100 uM DNA injected into 5-20 uM TyrR; settings: protein: recombinant; tags: N-terminal His6; chain copies: 2; blunt
TyrR (TyrRA153) [6] = target: T2, TyrR (TyrRA153); assay: ITC; L-Tyr + ATP (saturating; e.g. 0.1 mM L-Tyr, 0.5 mM ATP); 10 mM MgCl2; ITC: 5 mM Tris, 5 mM PIPES, 5 mM MES, 150 mM NaCl, 10 mM MgCl2, 10 mM beta-mercaptoethanol, 10% glycerol, pH 7.5, 10 C; 100 uM DNA injected into 5-20 uM TyrR; settings: protein: recombinant; tags: N-terminal His6; chain copies: 2; blunt
[7] = ITC, in the presence of ATP, read-out: K D
[8] = ITC, ligand alone (absence of ATP for amino acids)
[9] = ITC, ligand alone (absence of ATP for amino acids), read-out: K D

O=C(O)c1ccc(O)cc1 [4‐hydroxybenzoic acid]
Kd (HpaAA153): 28.5 ± 2 µM | ΔH (HpaAA153; ITC, One binding site model): -0.4 ± 0.03 kcal/mol | binding to HpaRA153 as determined by isothermal titration calorimetry (HpaRA153): did not bind

Cc1cccc(C(=O)O)c1 [3-methylbenzoic acid]
binding to HpaAA153 as determined by isothermal titration calorimetry (HpaAA153): did not bind | binding to HpaRA153 as determined by isothermal titration calorimetry (HpaRA153): did not bind

O=C(O)Cc1ccc(O)c(O)c1 [3,4HPA, 3,4‐dihydroxyphenylacetic acid]
binding to HpaAA153 as determined by isothermal titration calorimetry (HpaAA153): did not bind | binding to HpaRA153 as determined by isothermal titration calorimetry (HpaRA153): unable to observe the binding | binding to HpaRA153 as determined by isothermal titration calorimetry (HpaRA153; listed as 3,4-dihydroxyphenylacetic acid): did not bind

N[C@@H](Cc1ccccc1)C(=O)O [L‐Phe, L‐Phenylalanine]
increase of TyrRA153 DNA binding affinity (TyrRA153 [1]): 2.6 fold | competition with L-Tyr for binding at the ATP-dependent site of TyrRA153 (TyrRA153 [2]; ITC): compete with L‐Tyr for binding | ΔH (TyrRA153 [2]; ITC, in the presence of ATP): -0.2 ± 0.01 kcal/mol | Kd (TyrRA153 [2]; [7]): 193 ± 24 µM | K D (TyrRA153 [2]; [8]): bound; also recorded: Binding ^a | ΔH (TyrRA153 [2]; [8]): Binding ^a | induction of ipdc gene expression compared to the same medium lacking the ligand (ipdc promoter; 30°C): 5.1 fold

O=C(O)Cc1ccc(O)cc1 [4HPA, 4‐hydroxyphenylacetic acid]
Kd (HpaAA153): 28.5 µM | binding to HpaRA153 as determined by isothermal titration calorimetry (HpaRA153): unable to observe the binding

O=C(O)C(=O)Cc1c[nH]c2ccccc12 [Indole-3-pyruvic acid]
binding to HpaAA153 as determined by isothermal titration calorimetry (HpaAA153): did not bind | binding to HpaRA153 as determined by isothermal titration calorimetry (HpaRA153): did not bind

O=C(O)c1ccccc1O [Salicylic acid]
binding to HpaAA153 as determined by isothermal titration calorimetry (HpaAA153): did not bind | binding to HpaRA153 as determined by isothermal titration calorimetry (HpaRA153): did not bind

Nc1ncnc2c1ncn2[C@@H]1O[C@H](COP(=O)(O)OP(=O)(O)OP(=O)(O)O)[C@@H](O)[C@H]1O [ATP]
ΔH (TyrRA153 [2]; [8]): -22.9 ± 1.5 kcal/mol | Kd (TyrRA153 [2]; [9]): 16 ± 0.7 µM

O=C(O)Cc1c[nH]c2ccccc12 [IAA, Indole‐3‐acetic acid]
binding to HpaAA153 as determined by isothermal titration calorimetry (HpaAA153): unable to observe IAA binding | binding to HpaAA153 as determined by isothermal titration calorimetry (HpaAA153; listed as Indole-3-acetic acid): did not bind | binding to TyrRA153 as determined by isothermal titration calorimetry (TyrRA153 [2]): did not bind | pKa [3]: 4.8 | effect of supplementation on ipdc expression (ipdc promoter; 0.25 mM and 1 mM, wild-type A153 and ipdc mutant): did not result in altered ipdc expression | induction of ipdc gene expression compared to the same medium lacking the ligand (ipdc promoter; 30°C): No changes in ipdc expression | binding to HpaRA153 as determined by isothermal titration calorimetry (HpaRA153): unable to observe IAA binding | binding to HpaRA153 as determined by isothermal titration calorimetry (HpaRA153; listed as Indole-3-acetic acid): did not bind

O=C(O)Cc1cccc(O)c1 [3-hydroxyphenylacetic acid]
binding to HpaRA153 as determined by isothermal titration calorimetry (HpaRA153): did not bind

N[C@@H](Cc1c[nH]c2ccccc12)C(=O)O [L‐Trp, L‐Tryptophan]
reduction of TyrRA153 DNA affinity (TyrRA153 [1]; presence of ligand): 2.3 fold | competition with L-Tyr for binding at the ATP-dependent site of TyrRA153 (TyrRA153 [2]; ITC): compete with L‐Tyr for binding | ΔH 1 (TyrRA153 [2]; ITC, in the presence of ATP): -1.8 ± 0.3 kcal/mol | ΔH 2 (TyrRA153 [2]; ITC, in the presence of ATP): -7.9 ± 1.7 kcal/mol | Kd (TyrRA153 [2]; ITC, in the presence of ATP, read-out: K D1): 1640 µM | Kd (TyrRA153 [2]; ITC, in the presence of ATP, read-out: K D2): 2060 µM | K D (TyrRA153 [2]; [8]): bound | ΔH (TyrRA153 [2]; [8]): -1.6 ± 0.5 kcal/mol | Kd (TyrRA153 [2]; [9]): 2680 ± 670 µM | effect of supplementation on ipdc transcription (ipdc promoter; LB medium, different concentrations, 30°C): did not result in increased ipdc transcription | induction of ipdc gene expression compared to the same medium lacking the ligand (ipdc promoter; 30°C): no changes in ipdc expression

N[C@@H](Cc1ccc(O)cc1)C(=O)O [L‐Tyr, L‐Tyrosine]
increase of TyrRA153 DNA binding affinity (TyrRA153 [1]): 2.4 fold | ΔH (TyrRA153 [2]; ITC, in the presence of ATP): -6.8 ± 0.1 kcal/mol | Kd (TyrRA153 [2]; [7]): 6 ± 0.2 µM | K D (TyrRA153 [2]; [8]): No binding | ΔH (TyrRA153 [2]; [8]): No binding | induction of ipdc gene expression compared to the same medium lacking the ligand (ipdc promoter; 30°C): 11.0 fold

O=C(O)Cc1ccccc1 [PAA, phenylacetic acid]
binding to HpaAA153 as determined by isothermal titration calorimetry (HpaAA153): did not recognize | binding to HpaAA153 as determined by isothermal titration calorimetry (HpaAA153; listed as Phenylacetic acid): did not bind | binding to HpaRA153 as determined by isothermal titration calorimetry (HpaRA153): did not recognize | binding to HpaRA153 as determined by isothermal titration calorimetry (HpaRA153; listed as Phenylacetic acid): did not bind

O=C(O)c1ccccc1 [Benzoic acid]
binding to HpaAA153 as determined by isothermal titration calorimetry (HpaAA153): did not bind | binding to HpaRA153 as determined by isothermal titration calorimetry (HpaRA153): did not bind

B1: Pipdc-wt-ITC (wild-type TyrR box) (dsDNA)
DNA 1: CCCCTGTAAAGGAGCCATTACATCAA
DNA 2: TTGATGTAATGGCTCCTTTACAGGGG
Kd (TyrR (TyrRA153) [4]): 0.074 ± 0.01 µM | Kd (TyrR (TyrRA153) [5]): 0.193 ± 0.02 µM | Kd (TyrR (TyrRA153) [6]): 0.081 ± 0.01 µM

B2: Pipdc-mut-ITC (mutant TyrR box) (dsDNA)
DNA 1: CCCCGACGTGGGAGCCGCCGTGTCAA
DNA 2: TTGACACGGCGGCTCCCACGTCGGGG
binding result (TyrR (TyrRA153) [5]): no binding
